In ChEMBL document CHEMBL4251646, “Improved antibacterial activity of a marine peptide-N2 against intracellular Salmonella typhimurium by conjugating with cell-penetrating peptides-bLFcin6/Tat11” (Eur J Med Chem, 2018):
In brackets after ≈: the same amount, converted by molar mass. Activity calls are given as the source filed them. No cut-off for these calls is given here.

Tests used:
Salmonella typhimurium [1] = assay: Bactericidal activity against Salmonella typhimurium ATCC 14028 at 10 uM within 3 to 9 hrs; type: functional, Salmonella enterica subsp. enterica serovar Typhimurium
Salmonella typhimurium [2] = assay: Antibacterial activity against Salmonella typhimurium ATCC 14028 assessed as survival at 10 uM after 3 hrs by broth microdilution method; type: functional, Salmonella enterica subsp. enterica serovar Typhimurium
Salmonella typhimurium [3] = assay: Antibacterial activity against Salmonella typhimurium ATCC 14028 at pH 7 after 16 to 18 hrs by broth microdilution method; type: functional, Salmonella enterica subsp. enterica serovar Typhimurium; conditions: Salmonella enterica
Salmonella typhimurium [4] = assay: Bactericidal activity against Salmonella typhimurium ATCC 14028 infected in mouse RAW264.7 cells assessed as log reduction in intracellular bacterial load at 50 uM within 3 to 9 hrs in presence of gentamycin; type: functional, Salmonella enterica subsp. enterica serovar Typhimurium
Salmonella typhimurium [5] = assay: Antibacterial activity against Salmonella typhimurium ATCC 14028 at pH 5 after 16 to 18 hrs by broth microdilution method; type: functional, Salmonella enterica subsp. enterica serovar Typhimurium; conditions: Salmonella enterica
Salmonella typhimurium [6] = assay: Bactericidal activity against Salmonella typhimurium ATCC 14028 infected in mouse RAW264.7 cells assessed as log reduction in intracellular bacterial load at 100 uM within 3 to 9 hrs in presence of gentamycin; type: functional, Salmonella enterica subsp. enterica serovar Typhimurium
[7] = Drug uptake in mouse RAW264.7 cells at 2 uM using FITC-labeled test compound after 2 hrs at 4 degC in presence of microtubule polymerization inhibitor nocodazole by trypan blue staining-based flow cytometry; type: ADME, cell-based; conditions: raw264.7, 2 h
[8] = Drug uptake in mouse RAW264.7 cells at 5 uM using FITC-labeled test compound after 0.5 hrs by flow cytometry; type: ADME, cell-based; conditions: raw264.7, 0.5 h
[9] = Cytotoxicity against mouse RAW264.7 cells assessed as cell survival at 100 uM after 8 hrs by MTT assay; type: cell-based; conditions: read-out: Survival
[10] = Drug internalization in mouse RAW264.7 cells at 1 uM using FITC-labeled test compound after 0.5 hrs by flow cytometry; type: ADME, cell-based; conditions: raw264.7, 0.5 h
[11] = Drug uptake in mouse RAW264.7 cells at 2 uM using FITC-labeled test compound at 4 degC after 2 hrs in presence of macropinocytosis inhibitor amiloride by trypan blue staining-based flow cytometry; type: ADME, cell-based; conditions: raw264.7, 2 h
[12] = Drug uptake in mouse RAW264.7 cells at 2 uM using FITC-labeled test compound at 4 degC after 2 hrs in presence of lipid raft disruptor MbetaCD by trypan blue staining-based flow cytometry; type: ADME, cell-based; conditions: raw264.7, 2 h
[13] = Drug uptake in cytosol of mouse RAW264.7 cells at 5 uM using FITC-labeled test compound after 5 hrs by Hoechst 33342/FM 4-64 staining-based confocal microscopic analysis; type: ADME, subcellular
[14] = Drug uptake in mouse RAW264.7 cells at 0.5 uM using FITC-labeled test compound at 4 degC after 2 hrs by flow cytometry; type: ADME, cell-based; conditions: raw264.7, 2 h
[15] = Drug uptake in mouse RAW264.7 cells at 5 uM using FITC-labeled test compound after 2 hrs by flow cytometry; type: ADME, cell-based; conditions: raw264.7, 2 h
[16] = Drug internalization in mouse RAW264.7 cells using FITC-labeled test compound by flow cytometry; type: ADME, cell-based
[17] = Drug internalization in mouse RAW264.7 cells at 1 uM using FITC-labeled test compound after 2 hrs by flow cytometry; type: ADME, cell-based; conditions: raw264.7, 2 h
[18] = Drug uptake in mouse RAW264.7 cells at 2 uM using FITC-labeled test compound at 4 degC after 2 hrs in presence of clathrin-mediated endocytosis inhibitor chlorpromazine by trypan blue staining-based flow cytometry; type: ADME, cell-based; conditions: raw264.7, 2 h
Salmonella typhimurium [19] = assay: Bactericidal activity against Salmonella typhimurium ATCC 14028 infected in mouse RAW264.7 cells assessed as log reduction in intracellular bacterial load at 5 uM after 10 hrs in presence of gentamycin; type: functional, Salmonella enterica subsp. enterica serovar Typhimurium
Salmonella typhimurium [20] = assay: Bactericidal activity against Salmonella typhimurium ATCC 14028 infected in mouse RAW264.7 cells assessed as log reduction in intracellular bacterial load at 10 uM after 10 hrs in presence of gentamycin; type: functional, Salmonella enterica subsp. enterica serovar Typhimurium
Salmonella typhimurium [21] = assay: Bactericidal activity against Salmonella typhimurium ATCC 14028 at 0.03125 to 4 times MIC after 24 hrs by dose-kill assay; type: functional, organism-based; conditions: Salmonella enterica subsp. enterica serovar Typhimurium
Salmonella typhimurium [22] = assay: Bactericidal activity against Salmonella typhimurium ATCC 14028 infected in mouse RAW264.7 cells assessed as log reduction in intracellular bacterial load at 20 uM within 3 to 9 hrs in presence of gentamycin; type: functional, Salmonella enterica subsp. enterica serovar Typhimurium
Salmonella typhimurium [23] = assay: Bactericidal activity against Salmonella typhimurium ATCC 14028 at 10 uM up to 9 hrs; type: functional, organism-based; conditions: Salmonella enterica subsp. enterica serovar Typhimurium
Salmonella typhimurium [24] = assay: Bactericidal activity against Salmonella typhimurium ATCC 14028 at MIC up to 6 hrs by time-kill assay; type: functional, organism-based; conditions: Salmonella enterica subsp. enterica serovar Typhimurium
Salmonella typhimurium [25] = assay: Bactericidal activity against Salmonella typhimurium ATCC 14028 at 1 to 2 times MIC after 2 hrs by time-kill assay; type: functional, organism-based; conditions: Salmonella enterica subsp. enterica serovar Typhimurium
Salmonella typhimurium [26] = assay: Bactericidal activity against Salmonella typhimurium ATCC 14028 at 0.125 to 1 times MIC after 24 hrs by dose-kill assay; type: functional, organism-based; conditions: Salmonella enterica subsp. enterica serovar Typhimurium

Compound	Activity (Salmonella typhimurium [1])	Survival (Salmonella typhimurium [2])	MIC (Salmonella typhimurium [3]) [µM]	log(activity) (Salmonella typhimurium [4])	MIC (Salmonella typhimurium [5]) [µM]	Drug uptake [7]	Drug uptake [8] [%]	viability at 8 h, 100 µM [9] [%]	Drug uptake [10] [%]	Drug uptake [11]	Drug uptake [12]	Drug uptake [13]	Drug uptake [14] [%]	Drug uptake [15] [%]	Drug uptake [16]	Drug uptake [17] [%]	Drug uptake [18]	log(activity) (Salmonella typhimurium [20])	further results
CC(C)[C@@H]1NC(=O)[C@H](C)NC(=O)[C@H](CC(N)=O)NC(=O)[C@H](CCCNC(=N)N)NC(=O)[C@H](Cc2ccc(O)cc2)NC(=O)[C@H](C(C)C)NC(=O)[C@@H]2CSSC[C@H](NC(=O)[C@H](C(C)C)NC(=O)[C@H](CCCNC(=N)N)NC1=O)C(=O)N[C@@H](Cc1cnc[nH]1)C(=O)N[C@@H](CCCNC(=N)N)C(=O)N[C@@H](CCCNC(=N)N)C(=O)N[C@H](C(=O)N[C@@H](CC(N)=O)C(=O)O)CSSC[C@H](NC(=O)[C@H](Cc1ccccc1)NC(=O)[C@H](C)NC(=O)[C@H](CCCNC(=N)N)NC(=O)[C@H](Cc1c[nH]c3ccccc13)NC(=O)[C@H](CCC(N)=O)NC(=O)[C@H](Cc1c[nH]c3ccccc13)NC(=O)[C@H](CCCNC(=N)N)NC(=O)[C@@H](N)CCCNC(=N)N)C(=O)N[C@@H](Cc1c[nH]c3ccccc13)C(=O)N[C@@H](CC(N)=O)C(=O)N[C@@H](C(C)C)C(=O)N2 [listing 1 of 2 here]	34.22 - 91.35%	1.9 ×10⁵ CFU/ml	2.25 (≈ 7.95 µg/mL)	1.63	9 (≈ 31.8 µg/mL)														log(activity) (Salmonella typhimurium [6]): 2.1
CC(C)[C@@H]1NC(=O)[C@H](C)NC(=O)[C@H](CC(N)=O)NC(=O)[C@H](CCCNC(=N)N)NC(=O)[C@H](Cc2ccc(O)cc2)NC(=O)[C@H](C(C)C)NC(=O)[C@@H]2CSSC[C@H](NC(=O)[C@H](C(C)C)NC(=O)[C@H](CCCNC(=N)N)NC1=O)C(=O)N[C@@H](Cc1cnc[nH]1)C(=O)N[C@@H](CCCNC(=N)N)C(=O)N[C@@H](CCCNC(=N)N)C(=O)N[C@H](C(=O)N[C@@H](CC(N)=O)C(=O)O)CSSC[C@H](NC(=O)[C@H](Cc1ccccc1)NC(=O)[C@H](C)NC(=O)[C@H](CCCNC(=N)N)NC(=O)[C@H](Cc1c[nH]c3ccccc13)NC(=O)[C@H](CCC(N)=O)NC(=O)[C@H](Cc1c[nH]c3ccccc13)NC(=O)[C@H](CCCNC(=N)N)NC(=O)[C@@H](N)CCCNC(=N)N)C(=O)N[C@@H](Cc1c[nH]c3ccccc13)C(=O)N[C@@H](CC(N)=O)C(=O)N[C@@H](C(C)C)C(=O)N2 [listing 2 of 2 here]						Not Active	70.9	86.5	28.3	Not Active	Not Active	Active	17.9	96.3	Dose-dependent effect and Tde	57.2	Not Active		
CC(C)[C@@H]1NC(=O)[C@H](C)NC(=O)[C@H](CC(N)=O)NC(=O)[C@H](CCCNC(=N)N)NC(=O)[C@H](Cc2ccc(O)cc2)NC(=O)[C@H](C(C)C)NC(=O)[C@@H]2CSSC[C@H](NC(=O)[C@H](C(C)C)NC(=O)[C@H](CCCNC(=N)N)NC1=O)C(=O)N[C@@H](Cc1cnc[nH]1)C(=O)N[C@@H](CCCNC(=N)N)C(=O)N[C@@H](CCCNC(=N)N)C(=O)N[C@H](C(=O)N[C@@H](CC(N)=O)C(=O)O)CSSC[C@H](NC(=O)[C@H](Cc1ccccc1)NC(=O)[C@H](C)NC(=O)[C@H](CCCNC(=N)N)NC(=O)[C@H](CCCNC(=N)N)NC(=O)[C@H](CCCNC(=N)N)NC(=O)[C@H](CCC(N)=O)NC(=O)[C@H](CCCNC(=N)N)NC(=O)[C@H](CCCNC(=N)N)NC(=O)[C@H](CCCCN)NC(=O)[C@H](CCCCN)NC(=O)[C@H](CCCNC(=N)N)NC(=O)CNC(=O)[C@@H](N)Cc1ccc(O)cc1)C(=O)N[C@@H](Cc1c[nH]c3ccccc13)C(=O)N[C@@H](CC(N)=O)C(=O)N[C@@H](C(C)C)C(=O)N2 [listing 1 of 2 here]						Not Active	99.9	90.2	93.5	Not Active	Not Active	Active	8.3	99.9	Dose-dependent effect and Tde	99.8	Not Active		
O=C(O)c1cn(C2CC2)c2cc(N3CCNCC3)c(F)cc2c1=O [CIPROFLOXACIN]	98.11 - 99.99%	5.5 ×10³ CFU/ml	0.05 (≈ 0.0166 µg/mL)															3.26	log(activity) (Salmonella typhimurium [19]): 2.67; Activity (Salmonella typhimurium [21]): Active
CC(C)[C@@H]1NC(=O)[C@H](C)NC(=O)[C@H](CC(N)=O)NC(=O)[C@H](CCCNC(=N)N)NC(=O)[C@H](Cc2ccc(O)cc2)NC(=O)[C@H](C(C)C)NC(=O)[C@@H]2CSSC[C@H](NC(=O)[C@H](C(C)C)NC(=O)[C@H](CCCNC(=N)N)NC1=O)C(=O)N[C@@H](Cc1cnc[nH]1)C(=O)N[C@@H](CCCNC(=N)N)C(=O)N[C@@H](CCCNC(=N)N)C(=O)N[C@H](C(=O)N[C@@H](CC(N)=O)C(=O)O)CSSC[C@H](NC(=O)[C@H](Cc1ccccc1)NC(=O)[C@H](C)NC(=O)[C@H](CCCNC(=N)N)NC(=O)[C@H](CCCNC(=N)N)NC(=O)[C@H](CCCNC(=N)N)NC(=O)[C@H](CCC(N)=O)NC(=O)[C@H](CCCNC(=N)N)NC(=O)[C@H](CCCNC(=N)N)NC(=O)[C@H](CCCCN)NC(=O)[C@H](CCCCN)NC(=O)[C@H](CCCNC(=N)N)NC(=O)CNC(=O)[C@@H](N)Cc1ccc(O)cc1)C(=O)N[C@@H](Cc1c[nH]c3ccccc13)C(=O)N[C@@H](CC(N)=O)C(=O)N[C@@H](C(C)C)C(=O)N2 [listing 2 of 2 here]	48.28 - 98.85%	1.5 ×10⁵ CFU/ml	1.94 (≈ 7.97 µg/mL)	3.26	3.89 (≈ 16 µg/mL)													1.19	log(activity) (Salmonella typhimurium [22]): 1.57
CC(C)[C@@H]1NC(=O)[C@H](C)NC(=O)[C@H](CC(N)=O)NC(=O)[C@H](CCCNC(=N)N)NC(=O)[C@H](Cc2ccc(O)cc2)NC(=O)[C@H](C(C)C)NC(=O)[C@@H]2CSSC[C@@H](NC(=O)[C@H](C(C)C)NC(=O)[C@@H](CCCNC(=N)N)NC1=O)C(=O)N[C@@H](Cc1cnc[nH]1)C(=O)N[C@H](CCCNC(=N)N)C(=O)N[C@@H](CCCNC(=N)N)C(=O)N[C@@H](C(=O)N[C@@H](CC(N)=O)C(=O)O)CSSC[C@H](NC(=O)[C@H](Cc1ccccc1)NC(=O)[C@H](C)NC(=O)[C@H](CCCNC(=N)N)NC(=O)[C@H](CCCNC(=N)N)NC(=O)[C@H](CCCNC(=N)N)NC(=O)[C@H](CCC(N)=O)NC(=O)[C@H](CCCNC(=N)N)NC(=O)[C@H](CCCNC(=N)N)NC(=O)[C@H](CCCCN)NC(=O)[C@H](CCCCN)NC(=O)[C@H](CCCNC(=N)N)NC(=O)CNC(=O)[C@@H](N)Cc1ccc(O)cc1)C(=O)N[C@@H](Cc1c[nH]c3ccccc13)C(=O)N[C@H](CC(N)=O)C(=O)N[C@@H](C(C)C)C(=O)N2																			Activity (Salmonella typhimurium [23]): inactive; Activity (Salmonella typhimurium [24]): Active; Activity (Salmonella typhimurium [25]): Active; Activity (Salmonella typhimurium [26]): Active
